We go through one molecule from patent EP0655506B1 (priority 1994, dated 1995).

Some results are limits rather than exact numbers.

Common to all, as to test: SDS activity gel analysis, incorporation of ddNMP relative to dNMP (Example 2)
Type in all cases: biochemical

Assay [1] deals with T1, E. coli DNA polymerase I mutant Pol I C-K5, R R S A K A I I F G L I Y G (Escherichia coli, UniProt P00582, N761I).
T1 construct: the large fragment of E. coli DNA polymerase I (Klenow fragment); made in house; crude lysate, renatured in gel
To be noted: renatured enzyme in gel; 1.5 µM 4dNTPs with or without 30 µM ddTTP; 37 °C 4 hr. The method, then: (§1) Mutant DNA polymerases are screened for their ability to incorporate dideoxynucleotides by SDS activity gel analysis. The procedure is a modification of that described by Spanos and Hübscher 91 Methods in Enzymology 263, 1983 and Karawya et al. 135 Analytical Biochemistry 318, 1983. Briefly, 10 ml of cells are induced for 4 to 6 hours and then pelleted. The cell pellet is resuspended in 0.3 ml 25 mM Tris HCl, pH 7.0, 5 mM EDTA. 20 µl of the resuspended cells are mixed with 40 µl of a solution of 1% SDS (sodium dodecyl sulfate), 2% mercaptoethanol, 30 % glycerol, 0.04% bromphenol blue, and 100 mM TrisHCl, pH 6.8. The mixtures are incubated at 37 °C for 5 min, and then 20 µl aliquots are loaded in duplicate onto two SDS polyacrylamide gels. The SDS polyacrylamide gels consist of a resolving gel that contains 8% polyacrylamide, 0.27% bisacrylamide, 190 mM TrisHCl, pH 8.8, 0.05% SDS, and 25 µg/ml denatured salmon sperm DNA, and a stacking gel that consists of 5% polyacrylamide, 0.17% bisacrylamide, 150 mM TrisHCl, pH 6.8, and 0.1% SDS. The two gels are electrophoresed at 100 V for 13 hr at a constant temperature of 13 °C in an electrophoresis buffer consisting of 190 mM TrisHCl and pH 8.8, 0.05% SDS.
(§2) After electrophoresis, the gels are washed over 8 hr in 4 changes of 500 ml each of Renaturation Buffer (50 mM Tris.HCl, pH 7.5, 5 mM magnesium acetate, 1 mM dithiothreitol, 40 mM KCI, 400 µg/ml bovine serum albumin, 16% glycerol and 0.95 mM EDTA) at 4 °C.
(§3) The renatured proteins are assayed for DNA polymerase activity by incubating each of the two gels in 6 ml of Renaturation Buffer, 1.5 µM 4dNTPs, 4 µl of [a-^32P]dATP (800 Ci/mmol, 10 mCi/ml), and 80 µg of purified thioredoxin. One of the mixtures also contains 30 µM ddTTP (a 20-fold molar excess over dTTP). The mixtures are incubated for 4 hr at 37 °C (70 °C for 2 hr for thermophilic DNA polymerases).
(§4) After incubation the gels are washed for 8 hr against four changes of 5% trichloracetic acid and 1% sodium pyrophosphate. The gels are then dried and autoradiographed.
(§5) To determine whether a mutant DNA polymerase is discriminating more or less against ddTTP, the intensities of the radioactive bands are compared on the two gels that were incubated in the presence and absence of ddTTP, and the ratio of the signal in the two bands for the unmodified DNA polymerase is compared with the ratio of the signal in the two bands for each of the mutants.

The target of assay [2] is T2, Taq DNA polymerase mutant Taq C-Q4, R R A A K T I I F G V L Y G (Thermus aquaticus, UniProt P19821, N666I).
T2 construct: the large fragment of Taq DNA polymerase (KlenTaq or _Taq DNA polymerase); made in house; crude lysate, renatured in gel
To be noted: renatured enzyme in gel; 1.5 µM 4dNTPs with or without 30 µM ddTTP; 70 °C 2 hr. The method, then: as §1, §2, §3, §4, §5

For assay [3], the target named is T3, Taq DNA polymerase mutant Taq C-Q2, R R A A K T F I Y G F L Y G (Thermus aquaticus, UniProt P19821, F667Y/I665F/N666I/V669F).
T3 construct: the large fragment of Taq DNA polymerase (KlenTaq or _Taq DNA polymerase); made in house; crude lysate, renatured in gel
To be noted: renatured enzyme in gel; 1.5 µM 4dNTPs with or without 30 µM ddTTP; 70 °C 2 hr. The method, then: as §1, §2, §3, §4, §5

The target of assay [4] is T4, E. coli DNA polymerase I mutant Pol I C-K3, R R S A K T F N F G L I Y G (Escherichia coli, UniProt P00582, A759T/I760F).
T4 construct: the large fragment of E. coli DNA polymerase I (Klenow fragment); made in house; crude lysate, renatured in gel
The settings on record: renatured enzyme in gel; 1.5 µM 4dNTPs with or without 30 µM ddTTP; 37 °C 4 hr. On the procedure: as §1, §2, §3, §4, §5

The target in assay [5] is T5, E. coli DNA polymerase I, wild type (Pol I WT), R R S A K A I N F G L I Y G (Escherichia coli, UniProt P00582).
T5 construct: the large fragment of E. coli DNA polymerase I (Klenow fragment); made in house; crude lysate, renatured in gel
On the procedure: as §1, §2, §3, §4, §5

Assay [6] has as its target T6, Taq DNA polymerase mutant Tqa C-Q5 (F667Y), R R A A K T I N Y G V L Y G (Thermus aquaticus, UniProt P19821, F667Y).
T6 construct: the large fragment of Taq DNA polymerase (KlenTaq or _Taq DNA polymerase); made in house; crude lysate, renatured in gel
To be noted: renatured enzyme in gel; 1.5 µM 4dNTPs with or without 30 µM ddTTP; 70 °C 2 hr. On the procedure: as §1, §2, §3, §4, §5

For assay [7], the target named is T7, Taq DNA polymerase mutant Taq C-Q3, R R A A K T I I Y G V L Y G (Thermus aquaticus, UniProt P19821, F667Y/N666I).
T7 construct: the large fragment of Taq DNA polymerase (KlenTaq or _Taq DNA polymerase); made in house; crude lysate, renatured in gel
To be noted: renatured enzyme in gel; 1.5 µM 4dNTPs with or without 30 µM ddTTP; 70 °C 2 hr. On the procedure:
as §1, §2, §3, §4, §5

Assay [8] addresses T8, Taq DNA polymerase, wild type (Taq WT), R R A A K T I N F G V L Y G (Thermus aquaticus, UniProt P19821).
T8 construct: the large fragment of Taq DNA polymerase (KlenTaq or _Taq DNA polymerase); made in house; crude lysate, renatured in gel
To be noted: renatured enzyme in gel; 1.5 µM 4dNTPs with or without 30 µM ddTTP; 70 °C 2 hr. The method, then:
as §1, §2, §3, §4, §5

For assay [9], the target named is T9, Taq DNA polymerase mutant Taq C-Q1, R D N A K T I N F G V L Y G (Thermus aquaticus, UniProt P19821, A661N/R660D).
T9 construct: the large fragment of Taq DNA polymerase (KlenTaq or _Taq DNA polymerase); made in house; crude lysate, renatured in gel
The settings on record: renatured enzyme in gel; 1.5 µM 4dNTPs with or without 30 µM ddTTP; 70 °C 2 hr. The method, then: as §1, §2, §3, §4, §5

Assay [10] addresses T10, E. coli DNA polymerase I mutant Pol I C-K4, R R S A K A I I Y G L I Y G (Escherichia coli, UniProt P00582, F762Y/N761I).
T10 construct: the large fragment of E. coli DNA polymerase I (Klenow fragment); made in house; crude lysate, renatured in gel
The settings on record: renatured enzyme in gel; 1.5 µM 4dNTPs with or without 30 µM ddTTP; 37 °C 4 hr. On the procedure:
as §1, §2, §3, §4, §5

The target in assay [11] is T11, E. coli DNA polymerase I mutant Pol I C-K6 (F762Y), R R S A K A I N Y G L I Y G (Escherichia coli, UniProt P00582, F762Y).
T11 construct: the large fragment of E. coli DNA polymerase I (Klenow fragment); made in house; crude lysate, renatured in gel
The method, then: as §1, §2, §3, §4, §5

Setting [12] is: renatured enzyme in gel, 1.5 µM 4dNTPs with or without 30 µM ddTTP, 37 °C 4 hr.

T5 sequence (P00582 324-928): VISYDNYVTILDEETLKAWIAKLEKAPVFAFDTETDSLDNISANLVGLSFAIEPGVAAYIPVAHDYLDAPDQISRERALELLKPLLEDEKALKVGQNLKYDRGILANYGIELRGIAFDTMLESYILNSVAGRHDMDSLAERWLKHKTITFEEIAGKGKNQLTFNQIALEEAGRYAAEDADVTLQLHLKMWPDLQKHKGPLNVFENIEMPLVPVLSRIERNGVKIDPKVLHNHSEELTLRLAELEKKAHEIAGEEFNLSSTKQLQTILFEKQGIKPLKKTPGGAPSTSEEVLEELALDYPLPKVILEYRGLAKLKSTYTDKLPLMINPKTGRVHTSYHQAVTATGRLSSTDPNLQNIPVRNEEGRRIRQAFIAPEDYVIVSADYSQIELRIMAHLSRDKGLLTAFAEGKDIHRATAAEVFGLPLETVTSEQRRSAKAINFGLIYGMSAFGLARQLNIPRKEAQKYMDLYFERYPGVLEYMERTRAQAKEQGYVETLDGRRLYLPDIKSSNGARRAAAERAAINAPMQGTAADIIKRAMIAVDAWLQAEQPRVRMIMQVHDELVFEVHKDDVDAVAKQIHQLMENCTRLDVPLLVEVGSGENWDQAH
T11 sequence (P00582 324-928 F762Y): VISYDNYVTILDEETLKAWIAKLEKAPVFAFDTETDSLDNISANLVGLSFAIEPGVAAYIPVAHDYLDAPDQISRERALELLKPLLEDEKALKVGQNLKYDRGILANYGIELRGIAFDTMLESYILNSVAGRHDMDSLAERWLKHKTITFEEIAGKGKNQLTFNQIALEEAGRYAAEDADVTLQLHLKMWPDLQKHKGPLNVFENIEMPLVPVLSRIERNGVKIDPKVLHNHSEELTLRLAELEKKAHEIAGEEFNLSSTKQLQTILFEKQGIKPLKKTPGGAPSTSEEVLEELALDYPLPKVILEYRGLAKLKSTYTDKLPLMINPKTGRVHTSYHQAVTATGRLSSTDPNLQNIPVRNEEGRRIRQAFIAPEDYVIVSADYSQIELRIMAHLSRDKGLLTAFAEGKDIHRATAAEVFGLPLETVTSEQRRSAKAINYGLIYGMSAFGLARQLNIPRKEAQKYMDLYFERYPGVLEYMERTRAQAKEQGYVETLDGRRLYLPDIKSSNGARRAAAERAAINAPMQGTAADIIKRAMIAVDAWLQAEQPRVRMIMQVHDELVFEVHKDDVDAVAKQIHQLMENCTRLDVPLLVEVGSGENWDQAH
T9 sequence (P19821 236-832 R660D/A661N): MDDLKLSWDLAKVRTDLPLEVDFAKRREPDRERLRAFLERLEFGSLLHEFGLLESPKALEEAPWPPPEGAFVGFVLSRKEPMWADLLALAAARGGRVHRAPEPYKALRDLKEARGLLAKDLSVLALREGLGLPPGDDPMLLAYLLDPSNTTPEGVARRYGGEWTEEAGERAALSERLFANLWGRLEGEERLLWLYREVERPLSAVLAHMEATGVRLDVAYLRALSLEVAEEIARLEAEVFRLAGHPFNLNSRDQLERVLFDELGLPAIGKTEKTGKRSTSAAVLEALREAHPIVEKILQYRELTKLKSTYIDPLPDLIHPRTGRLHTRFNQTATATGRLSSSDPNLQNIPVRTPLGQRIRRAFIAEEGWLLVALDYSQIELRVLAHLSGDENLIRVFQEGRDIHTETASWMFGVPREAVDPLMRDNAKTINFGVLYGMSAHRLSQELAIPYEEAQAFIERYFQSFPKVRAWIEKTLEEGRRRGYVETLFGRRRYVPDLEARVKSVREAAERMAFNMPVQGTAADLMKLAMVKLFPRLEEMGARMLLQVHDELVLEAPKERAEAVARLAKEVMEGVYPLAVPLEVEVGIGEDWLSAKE
T7 sequence (P19821 236-832 N666I/F667Y): as the sequence (P19821 236-832 R660D/A661N) above, with D425R, N426A, N431I, F432Y counted along it
T10 sequence (P00582 324-928 N761I/F762Y): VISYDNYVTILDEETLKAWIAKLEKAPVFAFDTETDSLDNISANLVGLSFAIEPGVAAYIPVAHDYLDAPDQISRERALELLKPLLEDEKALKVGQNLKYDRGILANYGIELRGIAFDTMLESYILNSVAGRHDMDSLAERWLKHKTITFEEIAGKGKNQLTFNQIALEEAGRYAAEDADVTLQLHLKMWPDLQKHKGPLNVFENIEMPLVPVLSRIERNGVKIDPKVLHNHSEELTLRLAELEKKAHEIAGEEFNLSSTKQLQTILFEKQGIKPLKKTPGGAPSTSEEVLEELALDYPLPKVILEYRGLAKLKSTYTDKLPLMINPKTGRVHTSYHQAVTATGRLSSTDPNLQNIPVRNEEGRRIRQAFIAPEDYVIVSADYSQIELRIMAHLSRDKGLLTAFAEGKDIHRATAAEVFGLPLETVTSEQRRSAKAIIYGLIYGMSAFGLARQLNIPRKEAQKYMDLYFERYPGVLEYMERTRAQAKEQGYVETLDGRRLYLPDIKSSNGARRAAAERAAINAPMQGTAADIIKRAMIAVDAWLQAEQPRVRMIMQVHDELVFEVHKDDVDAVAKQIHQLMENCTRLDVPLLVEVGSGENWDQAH
T4 sequence (P00582 324-928 A759T/I760F): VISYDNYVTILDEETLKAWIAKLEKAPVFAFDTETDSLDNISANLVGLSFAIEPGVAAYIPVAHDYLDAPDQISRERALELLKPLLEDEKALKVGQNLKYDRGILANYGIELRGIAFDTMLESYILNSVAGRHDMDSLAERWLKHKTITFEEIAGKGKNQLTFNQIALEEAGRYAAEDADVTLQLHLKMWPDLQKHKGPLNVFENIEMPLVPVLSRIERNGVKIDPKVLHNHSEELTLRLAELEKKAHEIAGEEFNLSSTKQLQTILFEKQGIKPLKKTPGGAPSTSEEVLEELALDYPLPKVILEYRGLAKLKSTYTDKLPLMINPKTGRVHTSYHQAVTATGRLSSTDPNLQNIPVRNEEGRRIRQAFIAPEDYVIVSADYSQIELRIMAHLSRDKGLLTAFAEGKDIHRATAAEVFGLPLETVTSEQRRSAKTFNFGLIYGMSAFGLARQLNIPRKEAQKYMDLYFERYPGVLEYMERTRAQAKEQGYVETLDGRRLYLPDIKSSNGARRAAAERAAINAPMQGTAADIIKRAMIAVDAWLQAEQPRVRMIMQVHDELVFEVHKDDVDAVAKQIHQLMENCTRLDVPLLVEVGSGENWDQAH
T3 sequence (P19821 236-832 I665F/N666I/F667Y/V669F): as the sequence (P19821 236-832 R660D/A661N) above, with D425R, N426A, I430F, N431I, F432Y, V434F counted along it
T2 sequence (P19821 236-832 N666I): as the sequence (P19821 236-832 R660D/A661N) above, with D425R, N426A, N431I counted along it
T1 sequence (P00582 324-928 N761I): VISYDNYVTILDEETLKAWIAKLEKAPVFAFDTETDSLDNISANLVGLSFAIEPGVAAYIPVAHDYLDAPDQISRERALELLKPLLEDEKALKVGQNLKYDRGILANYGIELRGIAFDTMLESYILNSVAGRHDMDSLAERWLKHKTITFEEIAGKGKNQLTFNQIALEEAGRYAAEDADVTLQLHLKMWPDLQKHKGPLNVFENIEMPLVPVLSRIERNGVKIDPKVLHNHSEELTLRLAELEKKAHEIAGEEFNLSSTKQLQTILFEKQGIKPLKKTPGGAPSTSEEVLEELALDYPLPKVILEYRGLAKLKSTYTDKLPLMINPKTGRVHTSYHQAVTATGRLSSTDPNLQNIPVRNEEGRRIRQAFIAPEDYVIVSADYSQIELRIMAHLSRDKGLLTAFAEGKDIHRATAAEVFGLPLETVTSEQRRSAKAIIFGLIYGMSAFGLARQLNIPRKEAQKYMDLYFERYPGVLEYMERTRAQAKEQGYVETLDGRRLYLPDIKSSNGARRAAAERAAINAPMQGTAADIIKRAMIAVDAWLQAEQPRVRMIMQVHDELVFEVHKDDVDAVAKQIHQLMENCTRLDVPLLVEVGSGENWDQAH
T8 sequence (P19821 236-832 limits assumed): as the sequence (P19821 236-832 R660D/A661N) above, with D425R, N426A counted along it
T6 sequence (P19821 236-832 F667Y): as the sequence (P19821 236-832 R660D/A661N) above, with D425R, N426A, F432Y counted along it

On to `Cc1cn([C@H]2CC[C@@H](COP(=O)(O)OP(=O)(O)OP(=O)(O)O)O2)c(=O)[nH]c1=O` [ddTTP], for which the “ddNTP Discrimination” value is “High” in assay [1]; “High” in assay [2]; “Low” in assay [3]; “High” in [4]; “High” in assay [5] (setting [12]); “Low” in assay [6]. In addition, the “ddNTP Discrimination” value is recorded as “Low” in [7]; “High” in [8]; “High” in assay [9]; “Low” in [10]; “Low” in assay [11] (setting [12]). For the same molecule, the “intensity of the bands in the presence versus the absence of ddTTP” value in [5] (30 µM ddTTP (20-fold molar excess over dTTP), 1.5 µM 4dNTPs, within a factor of two) is reported as “approximately the same intensity”. Further, in assay [11] (read-out: intensity of the bands in the presence of ddTTP relative to the absence of ddTTP), the activity at 30 µM was under 5%.
